“And” between values parts separate entries of the source, which are not always exact repeats. Equal values may be shown once.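 Growth conditions: 96-well plates. Treatment: test compound, 48 hours, 5 concentrations. Analysis: linear interpolation between bracketing concentrations; unreached endpoints set to highest concentration. At the GI50, growth is halved. At the TGI there is no net growth.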
Key:
Assay in all cases: NCI anticancer screen, dose series, 48 h
SF-295 CNS = tested on: SF-295 CNS
UACC-62 melanoma = tested on: UACC-62 melanoma
HOP-62 NSCLC = tested on: HOP-62 NSCLC
MALME-3M melanoma = tested on: MALME-3M melanoma
SW-620 colon = tested on: SW-620 colon
U251 CNS = tested on: U251 CNS
OVCAR-5 ovarian = tested on: OVCAR-5 ovarian
T-47D breast = tested on: T-47D breast
CCRF-CEM leukemia = tested on: CCRF-CEM leukemia
SK-MEL-28 melanoma = tested on: SK-MEL-28 melanoma
KM12 colon = tested on: KM12 colon
EKVX NSCLC = tested on: EKVX NSCLC
OVCAR-8 ovarian = tested on: OVCAR-8 ovarian
HT29 colon = tested on: HT29 colon
LOX IMVI melanoma = tested on: LOX IMVI melanoma
SN12C renal = tested on: SN12C renal
786-0 renal = tested on: 786-0 renal
MCF7 breast = tested on: MCF7 breast
HCT-116 colon = tested on: HCT-116 colon
SNB-19 CNS = tested on: SNB-19 CNS
CAKI-1 renal = tested on: CAKI-1 renal
COLO 205 colon = tested on: COLO 205 colon
DU-145 prostate = tested on: DU-145 prostate
MDA-MB-435 = tested on: MDA-MB-435
OVCAR-3 ovarian = tested on: OVCAR-3 ovarian
BT-549 breast = tested on: BT-549 breast
PC-3 prostate = tested on: PC-3 prostate
NCI-H23 lung = tested on: NCI-H23 lung
OVCAR-4 ovarian = tested on: OVCAR-4 ovarian
HS 578T breast = tested on: HS 578T breast
SF-268 CNS = tested on: SF-268 CNS
UACC-257 melanoma = tested on: UACC-257 melanoma
NCI-H226 lung = tested on: NCI-H226 lung
SK-OV-3 ovarian = tested on: SK-OV-3 ovarian
MDA-MB-231 breast = tested on: MDA-MB-231 breast
IGROV1 ovarian = tested on: IGROV1 ovarian
M14 melanoma = tested on: M14 melanoma
NCI-H460 lung = tested on: NCI-H460 lung
NCI/ADR-RES ovarian = tested on: NCI/ADR-RES ovarian
SF-539 CNS = tested on: SF-539 CNS
K-562 leukemia = tested on: K-562 leukemia
HCT-15 colon = tested on: HCT-15 colon
RXF 393 renal = tested on: RXF 393 renal
HCC-2998 colon = tested on: HCC-2998 colon
UO-31 renal = tested on: UO-31 renal
TK-10 renal = tested on: TK-10 renal
SNB-75 CNS = tested on: SNB-75 CNS
A498 renal = tested on: A498 renal
A549 NSCLC = tested on: A549 NSCLC
NCI-H522 lung = tested on: NCI-H522 lung
ACHN renal = tested on: ACHN renal
SK-MEL-5 melanoma = tested on: SK-MEL-5 melanoma

## NCCCn1c2c(c3ccc([N+](=O)[O-])cc3c1=O)C(=O)c1cc(Br)ccc1-2
SF-295 CNS
  GI50: 0.163 µM
UACC-62 melanoma
  GI50: 0.0195 µM
  TGI: 0.0488 µM and 0.0256 µM
HOP-62 NSCLC
  GI50: 0.034 µM and 0.0329 µM
  TGI: 0.171 µM and 0.388 µM
MALME-3M melanoma
  GI50: 0.103 µM
SW-620 colon
  GI50: 0.00106 µM
  TGI: 0.132 µM
U251 CNS
  GI50: 0.0202 µM
  TGI: 0.111 µM and 0.014 µM
OVCAR-5 ovarian
  GI50: 0.197 µM and 0.14 µM
  TGI: 0.409 µM and 0.688 µM
T-47D breast
  GI50: 0.346 µM and 0.169 µM
  TGI: 1.49 µM
CCRF-CEM leukemia
  GI50: 0.0033 µM
  TGI: 0.0159 µM
SK-MEL-28 melanoma
  GI50: 0.0715 µM
KM12 colon
  GI50: 0.0834 µM and 0.0185 µM
  TGI: 0.353 µM and 0.191 µM
EKVX NSCLC
  GI50: 0.0757 µM and 0.0501 µM
  TGI: 0.223 µM
OVCAR-8 ovarian
  GI50: 0.0271 µM
  TGI: 0.188 µM
HT29 colon
  GI50: 0.00556 µM
  TGI: 0.134 µM
LOX IMVI melanoma
  GI50: 0.00683 µM
  TGI: 0.109 µM and 0.0227 µM
SN12C renal
  GI50: 0.0154 µM
  TGI: 0.0566 µM
786-0 renal
  GI50: 0.0435 µM and 0.0643 µM
  TGI: 0.173 µM and 0.387 µM
MCF7 breast
  TGI: 0.0696 µM
HCT-116 colon
  GI50: 0.185 µM and 0.0484 µM
  TGI: 0.348 µM and 0.207 µM
SNB-19 CNS
  GI50: 0.0379 µM
CAKI-1 renal
  GI50: 0.219 µM
  TGI: 0.623 µM
COLO 205 colon
  GI50: 0.0946 µM and 0.79 µM
  TGI: 2.34 µM
DU-145 prostate
  GI50: 0.00205 µM
  TGI: 0.00873 µM and 0.0121 µM
MDA-MB-435
  GI50: 0.267 µM and 0.162 µM
  TGI: 1.36 µM
OVCAR-3 ovarian
  GI50: 0.254 µM
BT-549 breast
  GI50: 0.0314 µM and 0.0491 µM
  TGI: 0.893 µM
PC-3 prostate
  GI50: 0.101 µM and 0.0286 µM
  TGI: 0.412 µM and 0.312 µM
NCI-H23 lung
  GI50: 0.0289 µM and 0.0213 µM
  TGI: 0.118 µM and 0.151 µM
OVCAR-4 ovarian
  GI50: 0.102 µM
HS 578T breast
  GI50: 0.105 µM
SF-268 CNS
  GI50: 0.00358 µM
  TGI: 0.142 µM
UACC-257 melanoma
  GI50: 0.456 µM
NCI-H226 lung
  GI50: 0.0451 µM and 0.011 µM
  TGI: 0.326 µM and 0.0684 µM
SK-OV-3 ovarian
  GI50: 0.348 µM
  TGI: 2.03 µM
MDA-MB-231 breast
  GI50: 0.0364 µM and 0.0168 µM
  TGI: 0.218 µM and 0.103 µM
IGROV1 ovarian
  GI50: 0.0754 µM
  TGI: 0.225 µM and 0.0325 µM
M14 melanoma
  GI50: 0.185 µM
  TGI: 0.435 µM and 0.165 µM
NCI-H460 lung
  GI50: 0.000746 µM
  TGI: 0.113 µM
NCI/ADR-RES ovarian
  GI50: 0.0352 µM
  TGI: 0.203 µM and 0.206 µM
SF-539 CNS
  GI50: 0.0132 µM and 0.0109 µM
  TGI: 0.0699 µM and 0.0472 µM
K-562 leukemia
  GI50: 0.00813 µM
  TGI: 0.264 µM
HCT-15 colon
  GI50: 0.035 µM
  TGI: 0.155 µM and 0.0641 µM
RXF 393 renal
  GI50: 0.318 µM
HCC-2998 colon
  GI50: 0.154 µM
UO-31 renal
  GI50: 0.0575 µM
  TGI: 0.184 µM
TK-10 renal
  GI50: 0.267 µM and 0.28 µM
  TGI: 0.942 µM
SNB-75 CNS
  GI50: 0.00281 µM
  TGI: 0.0298 µM
A498 renal
  GI50: 0.00231 µM
  TGI: 0.0628 µM
A549 NSCLC
  GI50: 0.0897 µM
  TGI: 0.245 µM
NCI-H522 lung
  GI50: 0.29 µM
ACHN renal
  GI50: 0.0187 µM
  TGI: 0.0477 µM
SK-MEL-5 melanoma
  GI50: 0.0265 µM and 0.0338 µM
  TGI: 0.15 µM and 0.251 µM
